Values quoted from earlier work as cited in patent US20130005740A1, “PROCESS FOR PREPARATION OF OVER-THE-COUNTER GELATIN OR PECTIN-BASED DRUG DELIVERY” (7267207 CANADA LIMITED CORPORATION, priority 2009, published 2013).

Details: unlike aspirin

- stability in solution: stable in solution
Compound: CC(C)Cc1ccc(C(C)C(=O)O)cc1 (stereo not shown) [ibuprofen]
